Source: PubChem BioAssay AID248 (DTP/NCI, 2004)
“And” between values parts separate entries of the source, which are not always exact repeats. Equal entries are not always repeated. Inconclusive results and toxic doses are left out.

System: L1210 leukemia ip in BDF1 mice, survival T/C
Experiment: NCI In Vivo Anticancer Drug Screen. Data for tumor model L1210 Leukemia (intraperitoneal) in B6D2F1 (BDF1) mice
Settings: endpoint: mean survival time, higher = longer survival
Outline: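 Survival endpoint. Drug-treated group vs vehicle group, expressed as T divided by C. Tumor passaged by transplantation.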

[1] = dose: 100.0 mg/kg/injection, schedule: Q04DX003 (ip), vehicle: Klucel (hydroxypropylcellulose) (HPC)
[2] = dose: 200.0 mg/kg/injection, schedule: Q04DX003 (ip), vehicle: Klucel (hydroxypropylcellulose) (HPC)
[3] = dose: 400.0 mg/kg/injection, schedule: Q04DX003 (ip), vehicle: Klucel (hydroxypropylcellulose) (HPC)

CC(=[N-])CC(C)=O.CC(=[N-])CC(C)=O.[Ni+2]
T/C (dose: 3.0 mg/kg/injection, schedule: Q01DX009 (ip), vehicle: Klucel (hydroxypropylcellulose) (HPC)): 90 % of control
T/C (dose: 3.12 mg/kg/injection, schedule: Q01DX001 (ip), vehicle: Klucel (hydroxypropylcellulose) (HPC)): 97 % of control
T/C (dose: 3.12 mg/kg/injection, schedule: Q04DX003 (ip), vehicle: Klucel (hydroxypropylcellulose) (HPC)): 98 % of control
T/C (dose: 3.13 mg/kg/injection, schedule: Q01DX009 (ip), vehicle: Klucel (hydroxypropylcellulose) (HPC)): 97 % of control
T/C (dose: 6.0 mg/kg/injection, schedule: Q01DX009 (ip), vehicle: Klucel (hydroxypropylcellulose) (HPC)): 95 % of control
T/C (dose: 6.25 mg/kg/injection, schedule: Q01DX001 (ip), vehicle: Klucel (hydroxypropylcellulose) (HPC)): 100 % of control
T/C (dose: 6.25 mg/kg/injection, schedule: Q01DX009 (ip), vehicle: Klucel (hydroxypropylcellulose) (HPC)): 97 % of control
T/C (dose: 6.25 mg/kg/injection, schedule: Q04DX003 (ip), vehicle: Klucel (hydroxypropylcellulose) (HPC)): 97 % of control and 106 % of control
T/C (dose: 12.0 mg/kg/injection, schedule: Q01DX009 (ip), vehicle: Klucel (hydroxypropylcellulose) (HPC)): 96 % of control
T/C (dose: 12.5 mg/kg/injection, schedule: Q01DX001 (ip), vehicle: Klucel (hydroxypropylcellulose) (HPC)): 105 % of control
T/C (dose: 12.5 mg/kg/injection, schedule: Q01DX009 (ip), vehicle: Klucel (hydroxypropylcellulose) (HPC)): 98 % of control
T/C (dose: 12.5 mg/kg/injection, schedule: Q04DX003 (ip), vehicle: Klucel (hydroxypropylcellulose) (HPC)): 102 % of control and 103 % of control
T/C (dose: 25.0 mg/kg/injection, schedule: Q01DX001 (ip), vehicle: Klucel (hydroxypropylcellulose) (HPC)): 100 % of control

COc1ccc(C2NC(=O)c3ccccc3N2)c(OC)c1OC (stereo not given)
T/C (dose: 100.0 mg/kg/injection, schedule: Q01DX009 (ip), vehicle: Klucel (hydroxypropylcellulose) (HPC)): 105 % of control
T/C [1]: 97 % of control
T/C (dose: 200.0 mg/kg/injection, schedule: Q01DX009 (ip), vehicle: Klucel (hydroxypropylcellulose) (HPC)): 100 % of control
T/C [2]: 101 % of control
T/C (dose: 400.0 mg/kg/injection, schedule: Q01DX009 (ip), vehicle: Klucel (hydroxypropylcellulose) (HPC)): 106 % of control
T/C [3]: 102 % of control

CCc1nc(N[N+](=O)[O-])nc(CC)c1-c1ccc([N+](=O)[O-])cc1O
T/C (dose: 100.0 mg/kg/injection, schedule: Q04DX002 (ip), vehicle: saline with Tween-80): 97 % of control
T/C (dose: 200.0 mg/kg/injection, schedule: Q04DX002 (ip), vehicle: saline with Tween-80): 87 % of control
T/C (dose: 400.0 mg/kg/injection, schedule: Q04DX002 (ip), vehicle: saline with Tween-80): 95 % of control

C(COC1CC2CC1C1C2CC2OC21)OC1CC2CC1C1C2CC2OC21 (stereo not given)
T/C (dose: 50.0 mg/kg/injection, schedule: Q01DX001 (ip), vehicle: carboxymethylcellulose (CMC)): 96 % of control
T/C (dose: 100.0 mg/kg/injection, schedule: Q01DX001 (ip), vehicle: carboxymethylcellulose (CMC)): 98 % of control
T/C (dose: 200.0 mg/kg/injection, schedule: Q01DX001 (ip), vehicle: carboxymethylcellulose (CMC)): 96 % of control
T/C (dose: 400.0 mg/kg/injection, schedule: Q01DX001 (ip), vehicle: carboxymethylcellulose (CMC)): 102 % of control

Cc1cn2nnnc2nc1-c1ccccc1O
T/C (dose: 100.0 mg/kg/injection, schedule: Q04DX002 (ip), vehicle: Klucel (hydroxypropylcellulose) (HPC)): 98 % of control
T/C (dose: 200.0 mg/kg/injection, schedule: Q04DX002 (ip), vehicle: Klucel (hydroxypropylcellulose) (HPC)): 91 % of control
T/C (dose: 400.0 mg/kg/injection, schedule: Q04DX002 (ip), vehicle: Klucel (hydroxypropylcellulose) (HPC)): 94 % of control

CC(C)CN(CC(C)C)[N+](=O)[O-]
T/C (dose: 100.0 mg/kg/injection, schedule: Q01DX001 (ip), vehicle: Klucel (hydroxypropylcellulose) (HPC)): 97 % of control
T/C (dose: 200.0 mg/kg/injection, schedule: Q01DX001 (ip), vehicle: Klucel (hydroxypropylcellulose) (HPC)): 114 % of control
T/C (dose: 400.0 mg/kg/injection, schedule: Q01DX001 (ip), vehicle: Klucel (hydroxypropylcellulose) (HPC)): 97 % of control

CSc1ncnc2nncnc12
T/C (dose: 5.0 mg/kg/injection, schedule: Q01DX001 (ip), vehicle: other): 104 % of control
T/C (dose: 10.0 mg/kg/injection, schedule: Q01DX001 (ip), vehicle: other): 106 % of control
T/C (dose: 20.0 mg/kg/injection, schedule: Q01DX001 (ip), vehicle: other): 101 % of control
T/C (dose: 40.0 mg/kg/injection, schedule: Q01DX001 (ip), vehicle: other): 98 % of control

COC(C(=O)C(O)C(C)O)C1CC2C=C3C=C(OC4CC(OC5CC(O)C(OC)C(C)O5)C(OC(C)=O)C(C)O4)C(C)C(=O)C3=C(O)C2=C(O)C1OC1CC(OC2CC(OC3CC(C)(O)C(OC(=O)C(C)C)C(C)O3)C(O)C(C)O2)C(O)C(C)O1 (stereo not given)
T/C (dose: 0.25 mg/kg/injection, schedule: Q01DX001 (ip), vehicle: other): 121 % of control
T/C (dose: 0.5 mg/kg/injection, schedule: Q01DX001 (ip), vehicle: other): 113 % of control
T/C (dose: 1.0 micrograms/kg/injection, schedule: Q01DX009 (ip), vehicle: other): 111 % of control
T/C (dose: 1.0 micrograms/kg/injection, schedule: Q01DX009 (ip), vehicle: saline): 111 % of control
T/C (dose: 2.0 micrograms/kg/injection, schedule: Q01DX009 (ip), vehicle: other): 105 % of control
T/C (dose: 2.0 micrograms/kg/injection, schedule: Q01DX009 (ip), vehicle: saline): 117 % of control
T/C (dose: 4.0 micrograms/kg/injection, schedule: Q01DX009 (ip), vehicle: other): 109 % of control
T/C (dose: 4.0 micrograms/kg/injection, schedule: Q01DX009 (ip), vehicle: saline): 117 % of control
T/C (dose: 5.0 micrograms/kg/injection, schedule: Q01DX001 (ip), vehicle: saline): 114 % of control
T/C (dose: 8.0 micrograms/kg/injection, schedule: Q01DX009 (ip), vehicle: other): 121 % of control
T/C (dose: 10.0 micrograms/kg/injection, schedule: Q01DX001 (ip), vehicle: saline): 123 % of control
T/C (dose: 16.0 micrograms/kg/injection, schedule: Q01DX009 (ip), vehicle: other): 118 % of control
T/C (dose: 16.0 micrograms/kg/injection, schedule: Q01DX009 (ip), vehicle: saline): 117 % of control
T/C (dose: 20.0 micrograms/kg/injection, schedule: Q01DX001 (ip), vehicle: saline): 114 % of control
T/C (dose: 32.0 micrograms/kg/injection, schedule: Q01DX009 (ip), vehicle: saline): 112 % of control
T/C (dose: 37.0 micrograms/kg/injection, schedule: Q01DX009 (ip), vehicle: other): 110 % of control
T/C (dose: 40.0 micrograms/kg/injection, schedule: Q01DX001 (ip), vehicle: saline): 120 % of control
T/C (dose: 62.5 micrograms/kg/injection, schedule: Q04DX003 (ip), vehicle: saline): 107 % of control
T/C (dose: 80.0 micrograms/kg/injection, schedule: Q01DX001 (ip), vehicle: saline): 103 % of control
T/C (dose: 125.0 micrograms/kg/injection, schedule: Q01DX001 (ip), vehicle: saline): 151 % of control and 331 % of control
T/C (dose: 125.0 micrograms/kg/injection, schedule: Q04DX003 (ip), vehicle: saline): 104 % of control
T/C (dose: 125.0 micrograms/kg/injection, schedule: Q08DX002 (ip), vehicle: saline): 163 % of control
T/C (dose: 250.0 micrograms/kg/injection, schedule: Q01DX001 (ip), vehicle: saline): 116 % of control and 198 % of control and 283 % of control

CNC(=N)c1ccc(NC(=N)c2ccc(NC(=N)c3ccc(NC(=O)Nc4ccc(C(=N)NC)cc4)cc3)cc2)cc1
T/C (dose: 1.87 mg/kg/injection, schedule: Q01DX015 (ip), vehicle: water): 114 % of control
T/C (dose: 3.0 mg/kg/injection, schedule: Q01DX015 (sc), vehicle: water): 103 % of control
T/C (dose: 4.4 mg/kg/injection, schedule: Q01DX015 (sc), vehicle: water): 101 % of control
T/C (dose: 6.7 mg/kg/injection, schedule: Q01DX015 (sc), vehicle: water): 103 % of control
T/C (dose: 7.5 mg/kg/injection, schedule: Q01DX015 (ip), vehicle: water): 206 % of control
T/C (dose: 15.0 mg/kg/injection, schedule: Q01DX015 (sc), vehicle: water): 206 % of control
T/C (dose: 22.5 mg/kg/injection, schedule: Q01DX015 (sc), vehicle: water): 158 % of control

CCCCCCCCCCCCCCCCCCCCCCCCC
T/C [1]: 91 % of control
T/C [2]: 89 % of control
T/C [3]: 87 % of control

C[n+]1ncc2ccccc2c1Cc1ccc(Br)cc1
T/C (dose: 6.25 mg/kg/injection, schedule: Q01DX009 (ip), vehicle: other): 98 % of control and 103 % of control
T/C (dose: 6.25 mg/kg/injection, schedule: Q04DX002 (ip), vehicle: carboxymethylcellulose (CMC)): 91 % of control
T/C (dose: 12.5 mg/kg/injection, schedule: Q01DX009 (ip), vehicle: other): 108 % of control and 86 % of control
T/C (dose: 12.5 mg/kg/injection, schedule: Q04DX002 (ip), vehicle: carboxymethylcellulose (CMC)): 106 % of control
T/C (dose: 25.0 mg/kg/injection, schedule: Q04DX002 (ip), vehicle: carboxymethylcellulose (CMC)): 91 % of control
T/C (dose: 25.0 mg/kg/injection, schedule: Q04DX002 (ip), vehicle: other): 100 % of control and 90 % of control
